Calls of active or inactive are those of the source. No cut-off for these calls is given here.
Tests used:
HUVEC = test: Inhibition of human umbilical vein endothelial cell (HUVEC) adhesion to vitronectin at 300 uM (No inhibition); assay type: cell-based
[1] = target: Integrin alpha-IIb/beta-3 (Homo sapiens) (UniProt P05106+P08514); test: Inhibition of human umbilical vein endothelial cell (HUVEC) adhesion to fibrinogen at 300 uM (No inhibition); assay type: cell-based
[2] = target: Integrin alpha-5/beta-1 (Homo sapiens) (UniProt P05556+P08648); test: Inhibition of human umbilical vein endothelial cell (HUVEC) adhesion to fibronectin at 300 uM (No inhibition); assay type: cell-based
Canis familiaris [3] = test: Ex vivo percent inhibition of platelet aggregation at oral dose of 4 mg/kg after 480 min; assay type: functional; details: Canis lupus familiaris, 8 h
Canis familiaris [4] = test: Ex vivo percent inhibition of platelet aggregation at oral dose of 2 mg/kg after 140 min; assay type: functional; details: Canis lupus familiaris

O=C(O)CCNC(=O)c1ccc2c(c1)C(=O)N(CCC1CCNCC1)C2 was tested, and the inhibition (HUVEC) was “inactive”, the inhibition [1] was “inactive” and the inhibition [2] was “inactive”. It also gave an inhibition in vivo at 4 mg/kg (Canis familiaris [3]) of 90% and an inhibition in vivo at 2 mg/kg (Canis familiaris [4]) of 65%.
